In brackets after ≈: the same amount, converted by molar mass. Several values for one entry are separate records, joined by “and”; a condition that tells them apart may be missing. Equal entries are not always repeated. Where two headings read alike, the source gives them in different places.
What was measured:
Mtb H37Rv [1] = assay: Supplementation experiments in Mtb (KAPA, DAPA, DTB, biotin); assay type: cell-based, Mycobacterium tuberculosis
M. bovis 0AF2122 = assay: microbe, parasite or virus in culture; assay type: cell-based; details: Mycobacterium tuberculosis variant bovis
Mtb H37Rv [2] = assay: C48 biotin deficient TB efficacy study; assay type: in vivo, BALB/c mice; details: for bacterial burden per mouse, Fig. 5C / bacterial burden per mouse, Fig. 5D (second organ, not given): 200mg/kg
HT-29 = details: 48 h; for Growth compared to DMSO control (%): HT-29 cell
in vivo = details: female, CD-1, mouse
K. pneumoniae ATCC 43816 = assay: MIC screening against Gram-negative pathogens: K. pneumoniae
Experimental: (§1) MIC measurements were based on a method previously described[6]. Overnight liquid cultures of E. coli BW, E. coli C0244, A. baumannii ATCC 17978, K. pneumoniae ATCC 43816, P. aeruginosa PA01 and E. faecium ATCC 19434 strains were inoculated with a single colony from a freshly streaked agar plate of the corresponding bacterial strain and cultured in M9 minimal medium supplemented with amino acids[6]. The bacterial culture was prepared by washing 1 mL of overnight culture in PBS pH 7.4 (x3), then diluted to OD600 = 0.5 and used to inoculate 1:1000 in M9 minimal medium with amino acids in 96-well plates. Compounds were added to 96-well plates in two-fold serial dilutions. The plates were incubated stationary at 37 °C for 18 h, then OD600 was measured. […] The assay was performed in duplicate.

P. aeruginosa PA01 = assay: MIC screening against Gram-negative pathogens: P. aeruginosa
Experimental: as §1

[3] = 200 mg/kg p.o. once daily, three weeks, biotin-deficient BALB/c
[4] = day 7 (values identical to Control: baseline)

## O=C1CCc2cc(N3CCN(C(=O)c4ccc(F)c(Br)c4)CC3)ncc21 [C48]
Mtb H37Rv [1]; 40 nM biotin
  activity against Mtb cultured with 40 nM biotin: minimal activity
Mtb H37Rv [1]; 2 μM biotin, GAST
  growth inhibitory effect with biotin supplementation: antagonized
Mtb H37Rv [1]; 50 μM DAPA, GAST
  growth inhibitory effect with DAPA supplementation: antagonized
Mtb H37Rv [1]; 50 μM DTB, GAST
  growth inhibitory effect with desthiobiotin (DTB) supplementation: antagonized
Mtb H37Rv [1]; 50 μM KAPA, GAST
  growth inhibitory effect with KAPA supplementation: not
M. bovis 0AF2122
  MIC: 0.0313 µM (≈ 0.0131 µg/mL)
Mtb H37Rv [2]; [3]
  reduction of bacterial burden in lungs: 1.0 log10 CFU
  reduction of bacterial burden in spleen: 2.1 log10 CFU
Mtb H37Rv [2]; [4]
  bacterial burden per mouse, Fig. 5C: 700 and 200 and 360 and 1090 and 400 and 320
  bacterial burden per mouse, Fig. 5D (second organ, not given): 1
Mtb H37Rv [2]; day 21
  bacterial burden per mouse, Fig. 5C: 88000 and 30000 and 12000 and 11000 and 133000 and 32000
  bacterial burden per mouse, Fig. 5D (second organ, not given): 90 and 1 (3×) and 20 and 70
Mtb H37Rv [2]; day 28
  bacterial burden per mouse, Fig. 5C: 9700 and 74000 and 49000 and 29000 and 48000 (2×) and 36000
  bacterial burden per mouse, Fig. 5D (second organ, not given): 20 and 6700 and 30 and 170 and 790 and 10 and 180
50 mg/kg p.o. for 4 days, 1 hr
  plasma concentration, dose escalation: 61800 and 52800 and 56400
50 mg/kg p.o. for 4 days, 24 hr
  plasma concentration, dose escalation: 12.4 and 12.1 and 9.65
100 mg/kg p.o. for 4 days, 0 hr
  plasma concentration, dose escalation: 14 and 10 and 13
100 mg/kg p.o. for 4 days, 1 hr
  plasma concentration, dose escalation: 112000 and 72300 and 72800
200 mg/kg p.o. for 4 days, 0 hr
  plasma concentration, dose escalation: 16 and 17 and 26
200 mg/kg p.o. for 4 days, 1 hr
  plasma concentration, dose escalation: 74500 and 50900 and 86400
200 mg/kg p.o. for 4 days, 5 hr
  plasma concentration, dose escalation: 57700 and 39600 and 50300
p.o. 50-200 mg/kg for 4 days
  tolerability in dose escalation: well tolerated
p.o. up to 200 mg/kg
  oral absorption in dose escalation: linear oral absorption
HT-29; 3.13 μM
  Growth compared to DMSO control (%): 103.339% and 102.14% and 102.153%
HT-29; 6.25 μM
  Growth compared to DMSO control (%): 105.34% and 100.609% and 100.571%
HT-29; 12.5 μM
  Growth compared to DMSO control (%): 103.832% and 99.2439% and 99.2304%
HT-29; 25 μM
  Growth compared to DMSO control (%): 102.371% and 98.4085% and 97.2044%
HT-29; 50 μM
  Growth compared to DMSO control (%): 101.665% and 97.1295% and 96.4305%
HT-29; 100 μM
  Growth compared to DMSO control (%): 100.396% and 97.8669% and 97.7498%
HT-29; concentrations up to 100 μM
  cytotoxicity toward HT-29: no cytotoxicity
In vivo
  half-life: 54.6 min
In vivo; iv
  Vd: 0.26 L/kg
  clearance: 3.2 mL/min/kg
  half-life: 54.6 min
In vivo; po, 25 mg/kg
  AUC(0-inf): 146 µg·h/mL
  bioavailability: > 100%
K. pneumoniae ATCC 43816
  MIC: inactive
P. aeruginosa PA01
  MIC: inactive

From article doi:10.1101/2025.09.24.678246 (bioRxiv, 2025)
